Publication PMC5489766 (Journal of Ginseng Research, 2016)

Experiments:
[1] = target: T1, HSA (Homo sapiens, UniProt P02768); test: Fluorescence quenching of HSA by G-Rh2; type: binding; conditions: for KSV: HSA 1 μM, pH 7.4; for Kd: K (binding constant)
[2] = tested on: HepG2 cells; test: MTT assay, cytotoxic activity with or without serum albumin; type: cell-based; conditions: HepG2, 7.5 μg/mL, 48 h
[3] = tested on: PARP cleavage in HepG2 cells; test: Immunoblotting of PARP cleavage; type: cell-based; conditions: HepG2, 7.5 μg/mL, BSA or bovine serum, 4 h
[4] = general statement; cited from earlier work
[5] = target: T2, BSA (Bos taurus, UniProt P02769); test: Fluorescence quenching of BSA by G-Rh2; type: binding, bovine; conditions: for KSV: BSA 1 μM, pH 7.4; for Kd: K (binding constant)
[6] = target: T1, HSA; test: UV-Vis absorption spectra of HSA with G-Rh2; type: binding; conditions: HSA 25 μM, G-Rh2 50 μM, 298K, pH7.4
[7] = target: T2, BSA; test: UV-Vis absorption spectra of BSA with G-Rh2; type: binding, bovine; conditions: BSA 25 μM, G-Rh2 50 μM, 298K, pH7.4

T2 sequence (P02769 25-607): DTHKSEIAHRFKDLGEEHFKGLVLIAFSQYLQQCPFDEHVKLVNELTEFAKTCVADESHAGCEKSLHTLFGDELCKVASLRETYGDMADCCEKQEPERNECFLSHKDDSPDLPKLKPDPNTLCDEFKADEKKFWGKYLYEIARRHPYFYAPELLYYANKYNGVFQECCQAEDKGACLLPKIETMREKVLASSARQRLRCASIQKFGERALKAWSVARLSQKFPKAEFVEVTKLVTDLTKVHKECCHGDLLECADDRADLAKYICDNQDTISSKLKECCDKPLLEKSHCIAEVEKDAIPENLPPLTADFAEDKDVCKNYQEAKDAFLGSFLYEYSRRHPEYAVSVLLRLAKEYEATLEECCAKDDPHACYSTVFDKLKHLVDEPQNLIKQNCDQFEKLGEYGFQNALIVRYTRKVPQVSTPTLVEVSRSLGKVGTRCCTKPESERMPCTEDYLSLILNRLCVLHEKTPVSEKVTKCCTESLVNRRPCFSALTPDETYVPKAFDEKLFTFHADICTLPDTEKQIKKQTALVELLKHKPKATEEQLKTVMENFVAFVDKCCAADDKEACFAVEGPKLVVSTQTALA
T1 sequence (P02768 25-609): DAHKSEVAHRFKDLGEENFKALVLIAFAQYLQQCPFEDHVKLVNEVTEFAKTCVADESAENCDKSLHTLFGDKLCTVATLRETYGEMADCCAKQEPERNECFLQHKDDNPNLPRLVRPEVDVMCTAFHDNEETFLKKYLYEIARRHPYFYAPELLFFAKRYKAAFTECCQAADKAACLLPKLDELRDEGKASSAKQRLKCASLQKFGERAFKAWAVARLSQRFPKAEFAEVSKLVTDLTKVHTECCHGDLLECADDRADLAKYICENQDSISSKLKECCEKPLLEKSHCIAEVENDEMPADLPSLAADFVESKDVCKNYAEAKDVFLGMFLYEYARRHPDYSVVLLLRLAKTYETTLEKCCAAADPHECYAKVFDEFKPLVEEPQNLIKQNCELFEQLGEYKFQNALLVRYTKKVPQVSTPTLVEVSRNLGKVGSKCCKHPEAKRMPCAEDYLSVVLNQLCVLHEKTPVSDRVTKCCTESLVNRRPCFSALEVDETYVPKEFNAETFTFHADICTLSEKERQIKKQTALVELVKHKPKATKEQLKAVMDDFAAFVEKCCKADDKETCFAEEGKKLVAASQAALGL

SMILES: CC(C)=CCC[C@](C)(O)[C@H]1CC[C@]2(C)[C@@H]1[C@H](O)C[C@@H]1[C@@]3(C)CC[C@H](O[C@@H]4O[C@H](CO)[C@@H](O)[C@H](O)[C@H]4O)C(C)(C)[C@@H]3CC[C@]12C [(20R) G-Rh2, Ginsenoside Rh2]
- KSV ([1]; 298 K): 4.5120 10^4 M^−1
- KSV ([1]; 303 K): 6.9016 10^4 M^−1
- KSV ([1]; 308 K): 7.2751 10^4 M^−1
- kq ([1]; HSA, 298 K): 4.5120 10^12 M^−1 s^−1
- n (number of binding sites) ([1]; HSA, 298 K): 1.131
- kq ([1]; HSA, 303 K): 6.9016 10^12 M^−1 s^−1
- n (number of binding sites) ([1]; HSA, 303 K): 1.0626
- kq ([1]; HSA, 308 K): 7.2751 10^12 M^−1 s^−1
- n (number of binding sites) ([1]; HSA, 308 K): 1.0284
- Kd ([1]; HSA, 298 K): 4.85 µM
- Kd ([1]; HSA, 303 K): 6.89 µM
- Kd ([1]; HSA, 308 K): 11.5 µM

SMILES: CC(C)=CCC[C@](C)(O)[C@H]1CC[C@]2(C)[C@@H]1[C@H](O)C[C@@H]1[C@@]3(C)CC[C@H](O[C@@H]4O[C@H](CO)[C@@H](O)[C@H](O)[C@H]4O)C(C)(C)[C@@H]3CC[C@]12C [(20S) G-Rh2, Ginsenoside Rh2]
- Cell viability ([2]; increased concentration of albumin by adding HSA, BSA or bovine serum): significantly increased in an albumin-dose-dependent manner
- Cell viability ([2]; without SA): killed almost all cells
- PARP cleavage ([3]; with 1.68mg/mL albumin by adding HSA): totally inhibited PARP cleavage
- PARP cleavage ([3]; without HSA): caused the cleavage of poly-adenosine diphosphate-ribose polymerase (PARP)
- water solubility [4]: very low
- KSV ([1]; 298 K): 4.9578 10^4 M^−1
- KSV ([1]; 303 K): 6.5117 10^4 M^−1
- KSV ([1]; 308 K): 7.2510 10^4 M^−1
- kq ([1]; HSA, 298 K): 4.9578 10^12 M^−1 s^−1
- n (number of binding sites) ([1]; HSA, 298 K): 1.2027
- kq ([1]; HSA, 303 K): 6.5117 10^12 M^−1 s^−1
- n (number of binding sites) ([1]; HSA, 303 K): 1.1449
- kq ([1]; HSA, 308 K): 7.2510 10^12 M^−1 s^−1
- n (number of binding sites) ([1]; HSA, 308 K): 1.0786
- number of binding site ([1]; HSA, temperature not stated, listed as (20S)-Rh2): 1
- Kd ([1]; HSA, 298 K): 1.83 µM
- Kd ([1]; HSA, 303 K): 2.86 µM
- Kd ([1]; HSA, 308 K): 5.39 µM
- KSV ([5]; 298 K): 7.3470 10^4 M^−1
- KSV ([5]; 303 K): 11.6703 10^4 M^−1
- KSV ([5]; 308 K): 9.2848 10^4 M^−1
- kq ([5]; BSA, 298 K): 7.3470 10^12 M^−1 s^−1
- n (number of binding sites) ([5]; BSA, 298 K): 1.1329
- kq ([5]; BSA, 303 K): 11.6703 10^12 M^−1 s^−1
- n (number of binding sites) ([5]; BSA, 303 K): 1.0192
- kq ([5]; BSA, 308 K): 9.2848 10^12 M^−1 s^−1
- n (number of binding sites) ([5]; BSA, 308 K): 0.9702
- number of binding site ([5]; BSA, temperature not stated (abstract)): 1
- Kd ([5]; BSA, 298 K): 2.77 µM
- Kd ([5]; BSA, 303 K): 7.01 µM
- Kd ([5]; BSA, 308 K): 15.5 µM

SMILES: CC(C)=CCC[C@](C)(O)[C@H]1CC[C@]2(C)[C@@H]1[C@H](O)C[C@@H]1[C@@]3(C)CC[C@H](O[C@@H]4O[C@H](CO)[C@@H](O)[C@H](O)[C@H]4O)C(C)(C)[C@@H]3CC[C@]12C [G-Rh2, Ginsenoside Rh2]
- UV-Vis absorption of protein on adding G-Rh2 [6]: significantly increased with a slight blue shift of the maximum absorption wavelength
- UV-Vis absorption of protein on adding G-Rh2 [7]: significantly increased with a slight blue shift of the maximum absorption wavelength
